{"source": "patent US11040976B2", "about": "“Substrate selective inhibitors of insulin-degrading enzyme (IDE) and uses thereof” (President and Fellows of Harvard College, priority 2015, dated 2021)", "key": {"[1]": {"system": "human IDE Ile362Gln and Gly362Gln", "experiment": "Activity assay of mutant human IDE variants Ile362Gln and Gly362Gln with IDE inhibitors", "assay_type": "biochemical", "source_text": "N-His6-tagged human IDE42-1019 construct was introduced in the expression plasmid pTrcHis-A (Invitrogen) using primers for uracil-specific excision reactions (USER) by Taq (NEB) and Pfu polymerases (PfuTurbo CX®, Agilent), as described in more detail in Maianti et al. (Nature (2014), 511, 94-98), which is incorporated by reference herein. The IDE gene was amplified with the primers 5′-[…]-dU-[…] (SEQ ID NO: 26) and 5′-[…] G-dU-[…] (SEQ ID NO: 27) (underlined sequences represent overhangs, and italics highlight the PCR priming sequence). Similarly, the pTrcHis-A vector was amplified for USER cloning with the primers 5′-[…]-dU-[…] (SEQ ID NO: 28) and 5′-[…]-dU-[…] (SEQ ID NO: 29). Mutant IDE constructs were generated by amplifying the full vector construct with USER cloning primers introducing a mutant overhang (see Table E6).\nRecombinant His6-tagged proteins were purified by Ni(II)-affinity chromatography (IMAC sepharose beads, GE Healthcare®) according to the manufacturer's instructions. The cell pellets were re-suspended in pH 8.0 buffer containing 50 mM phosphate, 300 mM NaCl, 10 mM imidazole, 1% Triton X-100 and 1 mM tris(2-carboxyethyl)phosphine hydrochloride (TCEP), and were lysed by probe sonication for 4 minutes at <4° C., followed by clearing of cell debris by centrifugation at 10,000 g for 25 minutes at 4° C. […]"}, "[2]": {"molecular_target": "T1, IDE, substrate amylin (fp) peptide (Homo sapiens, UniProt P14735)", "T1 sequence (P14735 1-1019)": "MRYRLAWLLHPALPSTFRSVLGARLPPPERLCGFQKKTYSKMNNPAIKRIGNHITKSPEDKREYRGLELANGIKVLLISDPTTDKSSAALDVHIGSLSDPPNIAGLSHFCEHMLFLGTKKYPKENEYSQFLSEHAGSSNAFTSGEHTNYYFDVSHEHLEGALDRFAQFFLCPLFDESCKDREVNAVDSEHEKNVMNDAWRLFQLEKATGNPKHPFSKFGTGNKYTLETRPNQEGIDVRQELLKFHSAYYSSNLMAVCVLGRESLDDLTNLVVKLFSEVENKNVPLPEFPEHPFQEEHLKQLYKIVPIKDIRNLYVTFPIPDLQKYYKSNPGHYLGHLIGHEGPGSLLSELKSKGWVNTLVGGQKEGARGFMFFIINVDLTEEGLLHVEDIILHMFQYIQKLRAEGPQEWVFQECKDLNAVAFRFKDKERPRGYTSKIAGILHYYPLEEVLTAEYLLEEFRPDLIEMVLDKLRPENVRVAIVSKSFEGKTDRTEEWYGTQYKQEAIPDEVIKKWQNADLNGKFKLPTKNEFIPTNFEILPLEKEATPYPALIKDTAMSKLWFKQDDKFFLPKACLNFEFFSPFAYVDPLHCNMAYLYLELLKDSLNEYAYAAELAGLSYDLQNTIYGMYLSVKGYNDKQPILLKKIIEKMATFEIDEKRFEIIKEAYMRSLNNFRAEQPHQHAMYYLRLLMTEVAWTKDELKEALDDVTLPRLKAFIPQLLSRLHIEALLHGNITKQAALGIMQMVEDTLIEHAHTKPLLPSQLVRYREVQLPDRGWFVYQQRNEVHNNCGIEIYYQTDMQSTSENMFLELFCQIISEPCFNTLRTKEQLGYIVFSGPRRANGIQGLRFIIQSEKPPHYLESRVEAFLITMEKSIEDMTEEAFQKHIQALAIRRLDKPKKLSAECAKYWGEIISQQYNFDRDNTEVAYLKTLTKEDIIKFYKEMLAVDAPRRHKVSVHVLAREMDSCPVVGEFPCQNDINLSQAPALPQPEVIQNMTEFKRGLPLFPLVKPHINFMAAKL", "experiment": "IDE concentration dependence profile with fluorogenic amylin analog", "assay_type": "biochemical", "conditions": "FIGS. 11B and 11C", "method": "In order to determine the behavior of the inhibitors with respect to amylin, a concentration dependence profile was measured for IDE in the presence of a specified concentration of inhibitor and a fluorogenic amylin analog. The amylin (fp) peptide sequence was KCNTATCATXRLANFLVHSSNNZGAILSSTNVGSNTY-NH2 (SEQ ID NO: 8). The residue marked as X is Lys-γN-anthrinilamide, and the residue marked as Z is 3-nitro-Tyr."}}}
{"smiles": "Cc1cccc(-c2ccc([C@@H]3[C@@H](CO)N4CCCCN(S(=O)(=O)c5ccccc5C)C[C@@H]34)cc2)c1", "note": "[compound 297]", "values": [{"measurement": "effect of mutations Ile362Gln and Gly362Gln on inhibition potency", "setting": "[1]", "result": "reduce the inhibition potency"}, {"measurement": "selectivity for inhibiting degradation of amylin over glucagon", "setting": "[2]; amylin (fp) curve compared with HTRF glucagon curve", "result": "selectivity for inhibiting degradation of amylin over degradation of glucagon"}, {"measurement": "selectivity for inhibiting degradation of insulin over amylin and glucagon", "setting": "[2]; amylin (fp) curve compared with HTRF insulin and glucagon curves", "result": "selectivity for inhibiting degradation of insulin over degradation of amylin and glucagon"}]}
